Experimental data as given in patent US20110269680A1 (PANACEA BIOTEC LIMITED, priority 2008, published 2011).
Numbered stars: 1 amine (or outer) side, 2 acyl side, 3 side chain; on linkers, the order of the positions; unused ones are H or OH. Square brackets hold non-standard residues; d marks the D form. Ends that are not written are not given here. Peptide text beside a SMILES is read from it. 2Furoyl(5-aminomethyl) = O=C(c1ccc(CN[*:1])o1)[*:2]; Aib = CC(C)(N)C(=O)O

Tests used:
[1] = target: T1, DPP-IV (Homo sapiens, UniProt P27487); assay: DPP-IV resistant assay; assay type: in vitro ADME; settings: for half-life at 20 μM: pH 8
T1 construct: purchased Sigma-Aldrich
Protocol: 20 μM of peptides of the present invention (Sequence IDs—01, 02, 03, 04, 05, 06, 11, 12 and 13) were incubated with 60 mU/2 ml of DPP-IV (Sigma-Aldrich) enzyme at room temperature (22-24° C.) in 20 mM Tris HCl buffer, pH 8.0. The aliquots were analyzed for the amount of undegraded peptide concentration at different time intervals by RP-HPLC. The peak area integration was used to determine the amount of undegraded peptide (U.S. Pat. No. 7,067,488). T1/2 of each peptide was determined from the graph plotted between peak area of undegraded peptide vs. time. The peak area of DPP-IV untreated peptide in above mentioned buffer condition of same concentration was considered as time zero. […]

[2] = target: T2, GLP-1R (Homo sapiens, UniProt P43220); assay: In vitro receptor functional assay (cAMP) in CHO/GLP-1R cells; assay type: cell-based; settings: intracellular cAMP, 30 min with 1 mM IBMX
T2 construct: expressed in transfected cells; host or cells: CHO/GLP-1R cells
Source text: cAMP is a ubiquitous cellular second messenger that is critical component of a signal transduction pathway linking membrane receptors and their ligands to the activation of internal cellular enzymatic activity and gene expression. cAMP is synthesized from ATP by membrane bound adenylate cyclase in a very regulated manner. In its simpler form, binding of a ligand, such as hormone or drug, to its specific G protein coupled receptor can either stimulate or inhibit adenylate cyclase depending on the GPCR being activated. […] Therefore the relative concentration of cAMP serves as a means to monitor the activity of GPCRs at the cell surface.
CHO/GLP-1R Cell Culture—CHO/GLP-1R Cells were maintained in Ham's F-12 medium containing 10% Fetal bovine serum and 1% penicillin-streptomycin antibiotic solution at 37° C. in a 5% CO2 incubator.
Cells were washed twice with PBS (pH-7.2) and incubated with 100 μl Ham's F-12 serum free medium supplemented with 0.1% BSA for 2 hr at 37° C. in 5% CO2 incubator. Cells were then incubated in 100 μl Ham's F-12 serum free medium supplemented with 0.1% BSA with 1 mM IBMX in the presence as well as absence of the peptides as per present invention in different concentration (10 nM, 1 nM, 100 pM & 10 pM). The reaction was stopped 30 min later by washing the intact cells three times with ice cold PBS (pH-7.2). The intracellular cAMP was extracted by incubating the cells in 100 μl 0.1N HCl at room temperature for 20 minutes. Mixture was dissociated by pipetting up and down until the suspension became homogenous, transferred to centrifuge tube and centrifuged at 800 rpm for 10 minutes.
Dissolved 5 pNPP tablets in 25 ml DEA buffer. Wells were emptied and washed five times with wash buffer and added 200 μl pNPP solution to each well, plate was covered and allowed to develop in dark for 90 minutes.

[3] = target: T3, NEP 24.11 (Homo sapiens, UniProt P08473); assay: NEP 24.11 resistant (degradation) assay; assay type: in vitro ADME; settings: pH 7.4; for half-life at 20 μM: buffer; for metabolised at 54 h, 20 μM: isolated enzyme neprilysin
T3 construct: purchased Calbiochem
Protocol: The aliquots were analyzed for the amount of undegraded peptide concentration at different time intervals using RP-HPLC by peak area integration. T1/2 of each peptide was determined from the graph plotted between peak area of undegraded peptide vs time.

[4] = system: C57BL/6 mice; assay: Oral Glucose Tolerance Test (OGTT) in C57BL/6 mice, 2 μg per mouse; assay type: in vivo; settings: 2 μg/mouse intraperitoneally, FIG. 4
Protocol: A volume of 100 μl of peptides of present invention (2 μg per mouse) were injected intraperitoneally into 6 hr fasted C57BL/6 normal male/female mice (4-6 wk). After 6 h of fasting, fasting glucose level was be assessed by using a Glucometer (Accu-Chek) from tail vein or the retro-orbital sinus. Glucose was given orally at the ratio 1 mg/g body wt. per mouse 5 min after the administration of peptides. Blood glucose levels were assessed at different time points i.e. at 0, 15, 30, 60, 120 and 180 min.
The graph was plotted for blood glucose (mg/dl) level against time.
The saline solution was administered to the female mice as control negative.

T2 sequence (P43220 24-463, species assumed): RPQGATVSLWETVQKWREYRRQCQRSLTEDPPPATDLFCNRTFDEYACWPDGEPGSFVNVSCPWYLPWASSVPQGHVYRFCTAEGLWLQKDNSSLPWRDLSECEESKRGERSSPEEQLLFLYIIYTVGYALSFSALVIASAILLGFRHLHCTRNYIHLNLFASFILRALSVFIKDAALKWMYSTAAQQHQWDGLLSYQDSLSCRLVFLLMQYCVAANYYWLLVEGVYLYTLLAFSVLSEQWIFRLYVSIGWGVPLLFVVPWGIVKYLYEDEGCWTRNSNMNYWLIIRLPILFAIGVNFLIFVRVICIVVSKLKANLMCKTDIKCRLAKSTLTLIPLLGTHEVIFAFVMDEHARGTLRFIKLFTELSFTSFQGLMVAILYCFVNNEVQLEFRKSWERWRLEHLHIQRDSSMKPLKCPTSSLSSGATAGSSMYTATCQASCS
T1 sequence (P27487 whole entry, species assumed): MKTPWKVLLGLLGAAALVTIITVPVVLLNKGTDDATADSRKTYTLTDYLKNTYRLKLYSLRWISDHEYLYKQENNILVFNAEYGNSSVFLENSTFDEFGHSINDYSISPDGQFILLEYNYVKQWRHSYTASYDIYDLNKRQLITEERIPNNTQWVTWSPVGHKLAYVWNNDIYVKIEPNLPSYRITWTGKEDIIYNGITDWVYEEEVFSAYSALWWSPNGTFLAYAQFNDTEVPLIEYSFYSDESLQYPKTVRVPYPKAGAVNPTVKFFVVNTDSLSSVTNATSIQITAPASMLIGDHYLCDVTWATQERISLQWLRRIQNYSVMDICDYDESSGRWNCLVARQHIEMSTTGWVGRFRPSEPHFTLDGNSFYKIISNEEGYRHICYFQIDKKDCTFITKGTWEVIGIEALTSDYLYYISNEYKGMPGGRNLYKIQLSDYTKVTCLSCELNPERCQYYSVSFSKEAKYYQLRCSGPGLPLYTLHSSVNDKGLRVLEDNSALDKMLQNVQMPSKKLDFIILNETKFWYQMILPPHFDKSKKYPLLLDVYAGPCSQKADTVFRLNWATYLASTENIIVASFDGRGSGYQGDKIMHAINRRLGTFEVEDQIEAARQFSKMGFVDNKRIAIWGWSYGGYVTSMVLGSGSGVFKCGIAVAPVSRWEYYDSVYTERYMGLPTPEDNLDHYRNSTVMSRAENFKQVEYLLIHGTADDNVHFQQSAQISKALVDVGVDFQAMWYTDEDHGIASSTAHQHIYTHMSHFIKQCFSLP
T3 sequence (P08473 whole entry): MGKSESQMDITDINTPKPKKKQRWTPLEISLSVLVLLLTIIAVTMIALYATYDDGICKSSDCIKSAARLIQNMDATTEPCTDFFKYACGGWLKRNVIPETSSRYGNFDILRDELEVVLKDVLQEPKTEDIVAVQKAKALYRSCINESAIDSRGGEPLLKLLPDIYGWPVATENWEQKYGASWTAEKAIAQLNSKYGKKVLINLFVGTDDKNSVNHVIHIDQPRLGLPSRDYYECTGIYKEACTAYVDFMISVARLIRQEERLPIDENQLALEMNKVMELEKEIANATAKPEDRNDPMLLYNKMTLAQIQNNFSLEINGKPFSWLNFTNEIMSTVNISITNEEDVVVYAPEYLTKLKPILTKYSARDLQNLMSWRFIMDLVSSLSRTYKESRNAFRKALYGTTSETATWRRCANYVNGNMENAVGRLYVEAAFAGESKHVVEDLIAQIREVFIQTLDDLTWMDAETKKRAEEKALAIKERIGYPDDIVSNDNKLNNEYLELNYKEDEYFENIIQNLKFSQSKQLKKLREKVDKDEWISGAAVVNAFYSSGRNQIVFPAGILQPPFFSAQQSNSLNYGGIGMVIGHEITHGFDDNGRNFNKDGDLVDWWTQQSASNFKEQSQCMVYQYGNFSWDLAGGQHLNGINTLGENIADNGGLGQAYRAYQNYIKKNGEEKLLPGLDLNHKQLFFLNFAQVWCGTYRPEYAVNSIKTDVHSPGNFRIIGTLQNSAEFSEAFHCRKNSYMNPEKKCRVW

Molecule | Percentage degradation in hrs [1] [%] | half-life at 20 μM [1] [h] | EC50 [2] [nM] | half-life at 20 μM [3] [h] | metabolised at 54 h, 20 μM [3] [%] | percent reduction in blood glucose (AUC0-60) compared with GLP-1(7-37) parent [4]
CC[C@H](C)[C@H](NC(=O)[C@H](Cc1ccccc1)NC(=O)[C@H](CCC(=O)O)NC(=O)[C@H](CCCCN)NC(=O)[C@H](C)NC(=O)[C@H](C)NC(=O)[C@H](CCC(N)=O)NC(=O)CNC(=O)[C@H](CCC(=O)O)NC(=O)[C@H](CC(C)C)NC(=O)[C@H](Cc1ccc(O)cc1)NC(=O)[C@H](CO)NC(=O)[C@H](CO)NC(=O)[C@@H](NC(=O)[C@H](CC(=O)O)NC(=O)[C@H](CO)NC(=O)[C@@H](NC(=O)[C@H](Cc1ccccc1)NC(=O)[C@@H](NC(=O)CNC(=O)c1ccc(CNC(=O)[C@@H](N)Cc2c[nH]cn2)o1)[C@@H](C)O)[C@@H](C)O)C(C)C)C(=O)N[C@@H](C)C(=O)N[C@@H](Cc1c[nH]c2ccccc12)C(=O)N[C@@H](CC(C)C)C(=O)N[C@H](C(=O)N[C@@H](CCCCN)C(=O)NCC(=O)N[C@@H](CCCNC(=N)N)C(=O)NCC(N)=O)C(C)C [Seq ID No. 02] | 43.62 | > 24 | 0.043 | – | – | –
CC[C@H](C)[C@H](NC(=O)[C@H](Cc1ccccc1)NC(=O)[C@H](CCC(=O)O)NC(=O)[C@H](CCCCN)NC(=O)[C@H](C)NC(=O)[C@H](C)NC(=O)[C@H](CCC(N)=O)NC(=O)CNC(=O)[C@H](CCC(=O)O)NC(=O)[C@H](CC(C)C)NC(=O)[C@H](Cc1ccc(O)cc1)NC(=O)[C@H](CO)NC(=O)[C@H](CO)NC(=O)[C@@H](NC(=O)[C@H](CC(=O)O)NC(=O)[C@H](CO)NC(=O)[C@@H](NC(=O)[C@H](Cc1ccccc1)NC(=O)[C@@H](NC(=O)CNC(=O)[C@H](CCC(=O)O)NC(=O)c1ccc(CNC(=O)[C@@H](N)Cc2c[nH]cn2)o1)[C@@H](C)O)[C@@H](C)O)C(C)C)C(=O)N[C@@H](C)C(=O)N[C@@H](Cc1c[nH]c2ccccc12)C(=O)N[C@@H](CC(C)C)C(=O)N[C@H](C(=O)N[C@@H](CCCCN)C(=O)NCC(=O)N[C@@H](CCCNC(=N)N)C(N)=O)C(C)C [Seq ID No. 03] | 13 | > 72 | 0.061 | 29 | 96.8 | –
CC[C@H](C)[C@H](NC(=O)[C@H](Cc1ccccc1)NC(=O)[C@H](CCC(=O)O)NC(=O)[C@H](CCCCN)NC(=O)[C@H](C)NC(=O)[C@H](C)NC(=O)[C@H](CCC(N)=O)NC(=O)CNC(=O)[C@H](CCC(=O)O)NC(=O)[C@H](CC(C)C)NC(=O)[C@H](Cc1ccc(O)cc1)NC(=O)[C@H](CO)NC(=O)[C@H](CO)NC(=O)C(C)(C)NC(=O)[C@H](CC(=O)O)NC(=O)[C@H](CO)NC(=O)[C@@H](NC(=O)[C@H](Cc1ccccc1)NC(=O)[C@@H](NC(=O)CNC(=O)[C@H](CCC(=O)O)NC(=O)CNC(=O)[C@@H](N)Cc1c[nH]cn1)[C@@H](C)O)[C@@H](C)O)C(=O)NC(C)(C)C(=O)N[C@@H](Cc1c[nH]c2ccccc12)C(=O)N[C@@H](CC(C)C)C(=O)N[C@H](C(=O)N[C@@H](CCCCN)C(=O)NCC(=O)N[C@@H](CCCNC(=N)N)C(N)=O)C(C)C [Seq ID No. 05] (H-HGEGTFTSD[Aib]SSYLEGQAAKEFI[Aib]WLVKGR-NH2) | – | 24.7 | 0.083 | 49 | 59.4 | –
CC[C@H](C)[C@H](NC(=O)[C@H](Cc1ccccc1)NC(=O)[C@H](CCC(=O)O)NC(=O)[C@H](CCCCN)NC(=O)[C@H](C)NC(=O)[C@H](C)NC(=O)[C@H](CCC(N)=O)NC(=O)CNC(=O)[C@H](CCC(=O)O)NC(=O)[C@H](CC(C)C)NC(=O)[C@H](Cc1ccc(O)cc1)NC(=O)[C@H](CO)NC(=O)[C@H](CO)NC(=O)[C@@H](NC(=O)[C@H](CC(=O)O)NC(=O)[C@H](CO)NC(=O)[C@@H](NC(=O)[C@H](Cc1ccccc1)NC(=O)[C@@H](NC(=O)CNC(=O)[C@H](CCC(=O)O)NC(=O)[C@H]1O[C@H](OC)[C@H](NC(=O)[C@@H](N)Cc2c[nH]cn2)[C@@H](O)[C@@H]1O)[C@@H](C)O)[C@@H](C)O)C(C)C)C(=O)N[C@@H](C)C(=O)N[C@@H](Cc1c[nH]c2ccccc12)C(=O)N[C@@H](CC(C)C)C(=O)N[C@H](C(=O)N[C@@H](CCCCN)C(=O)NCC(=O)N[C@@H](CCCNC(=N)N)C(N)=O)C(C)C [Seq ID No. 06] | – | 4.33 | 0.838 | – | – | –
CC[C@H](C)[C@H](NC(=O)[C@H](Cc1ccccc1)NC(=O)[C@H](CCC(=O)O)NC(=O)[C@H](CCCCN)NC(=O)[C@H](C)NC(=O)[C@H](C)NC(=O)[C@H](CCC(N)=O)NC(=O)CNC(=O)[C@H](CCC(=O)O)NC(=O)[C@H](CC(C)C)NC(=O)[C@H](Cc1ccc(O)cc1)NC(=O)[C@H](CO)NC(=O)[C@H](CO)NC(=O)C(C)(C)NC(=O)[C@H](CC(=O)O)NC(=O)[C@H](CO)NC(=O)[C@@H](NC(=O)[C@H](Cc1ccccc1)NC(=O)[C@@H](NC(=O)CNC(=O)c1ccc(CNC(=O)[C@@H](N)Cc2c[nH]cn2)o1)[C@@H](C)O)[C@@H](C)O)C(=O)NC(C)(C)C(=O)N[C@@H](Cc1c[nH]c2ccccc12)C(=O)N[C@@H](CC(C)C)C(=O)N[C@H](C(=O)N[C@@H](CCCCN)C(=O)NCC(=O)N[C@@H](CCCNC(=N)N)C(=O)NCC(N)=O)C(C)C [Seq ID No. 10] (H-H[2Furoyl(5-aminomethyl)]GTFTSD[Aib]SSYLEGQAAKEFI[Aib]WLVKGRG-NH2) | – | – | 3.38 | – | – | –
Seq ID No 01 (H[2Furoyl(5-aminomethyl)]EGTFTSDVSSYLEGQAAKEFIAWLVKGRG-NH2) | – | – | – | – | – | comparable activity to the GLP-1(7-37) parent peptide
Seq ID No.05 (HGEGTFTSDXSSYLEGQAAKEFIXWLVKGR) | – | – | – | – | – | better activity than GLP-1(7-37) parent peptide
